What was measured:
Assay type in all cases: cell-based
[1] = system: wild-type Yarrowia lipolytica (ATCC MYA-2613); test: Culture of wild-type lipid-producing microorganism in glucose minimal medium with or without hexanoic acid (Test Example 1); details: 1 g/L hexanoic acid
Method: (§1) As an exemplary embodiment of the present disclosure, wild-type Yarrowia lipolytica (microorganism accession number ATCC MYA-2613) was inoculated to a minimal medium containing glucose as a carbon source (20 g/L glucose, 6.7 g/L yeast nitrogen base, CSM-ura (MP Biomedicals, Solon, USA), pH 6.8 potassium phosphate buffer) and supplemented with 1 g/L hexanoic acid. Then shaking culture was conducted at 28° C. and 200 rpm. After culturing for 144-168 hours, the microorganism was separated from the culture through centrifugation.
as §1, with “After inoculating” for “As an exemplary embodiment of the present disclosure,”, “MYA-2613)” for “MYA-2613) was inoculated”, “buffer),” for “buffer) and supplemented with 1 g/L hexanoic acid. Then”
(§2) In order to investigate the consumption of the carbon source in the medium and the content of the produced lipids depending on the addition of hexanoic acid during the culturing of the lipid-producing microorganisms, the amount of biomass (dry cell weight) and lipids produced from the microorganisms isolated in Examples 1-2 and Comparative Examples 1-2 was measured. The amount of produced oleic acid was calculated through lipid assay and the amount of consumed glucose was measured form the separated cultures.

[2] = system: recombinant Yarrowia lipolytica; test: Culture of recombinant lipid-producing microorganism (peroxisomal biogenesis factor 10 deleted, diacylglycerol acyltransferase overexpressed) in glucose minimal medium with or without hexanoic acid (Test Example 1)
Method: (§3) As an exemplary embodiment of the present disclosure, after deleting peroxisomal biogenesis factor 10 (SEQ ID NO 1), which is a lipid degradation-related gene, from the wild-type Yarrowia lipolytica (microorganism accession number ATCC MYA-2613) of Example 1 using the CRISPR/Cas9 system, a lipid-producing microorganism was prepared by overexpressing diacylglycerol acyltransferase, which is a key gene in a lipid-producing metabolic pathway, using a vector (pMCS-12TEF-DGA1-CYC1t, SEQ ID NO 3) comprising a UAS1B enhancer, a TEF (translational elongation factor) promoter and a gene encoding diacylglycerol acyltransferase (SEQ ID NO 2). Then, after inoculating the microorganism to a minimal medium containing glucose as a carbon source (20 g/L glucose, 6.7 g/L yeast nitrogen base, CSM-ura (MP Biomedicals, Solon, USA), pH 6.8 potassium phosphate buffer) and supplemented with 1 g/L hexanoic acid, shaking culture was conducted at 28° C. and 200 rpm. After culturing for 144-168 hours, the microorganism was separated from the culture through centrifugation.
as §3, with “After” for “As an exemplary embodiment of the present disclosure, after”, “buffer),” for “buffer) and supplemented with 1 g/L hexanoic acid,”
as §2

[3] = system: transformed Yarrowia lipolytica; test: Oleic acid production depending on concentration of added hexanoic acid, glucose and xylose medium (Test Example 2); details: for oleic acid concentration increased by / oleic acid content increased by / oleic acid concentration: 168 hours; for oleic acid concentration increased by / oleic acid content increased by: vs Comparative Example 3; for oleic acid concentration: 0.377 g/L without hexanoic acid
Method: Specifically, wild-type Yarrowia lipolytica was transformed in the same manner as in Example 2 and hexanoic acid at 0 g/L (Comparative Example 3), 0.2 g/L (Example 3), 0.6 g/L (Example 4) or 1 g/L (Example 5) was added to a minimal medium containing 20 g/L glucose and 10 g/L xylose as carbon sources (20 g/L glucose, 10 g/L xylose, 6.7 g/L yeast nitrogen base, CSM-ura (MP Biomedicals, Solon, USA), pH 6.8 potassium phosphate buffer). Then, after inoculating the transformed microorganism to the medium, shaking culture was conducted at 28° C. and 200 rpm. After culturing for 168 hours, the microorganism was separated from the culture through centrifugation and the amount of produced lipids was measured from the separated strain. The amount of produced oleic acid was calculated through lipid assay and the amount of glucose and xylose consumed as carbon sources was measured from the separated culture.

[4] = Example 3, 0.2 g/L hexanoic acid
[5] = Example 4, 0.6 g/L hexanoic acid

CCCCCC(=O)O [hexanoic acid]
lipid production (in words) [1]: not increased significantly
consumption rate of the carbon source glucose ([1]; 20 g/L glucose, 28° C., FIG. 1): increased
increase of lipid production as compared to Comparative Example 1 ([1]; 144-168 hours, FIG. 2): about 10%
content of oleic acid in the produced lipids ([1]; FIG. 3): 66%
increase of lipid production as compared to Comparative Example 2 ([2]; 1 g/L hexanoic acid, 144-168 hours, FIG. 2): about 10%
consumption rate of the carbon source glucose ([2]; Example 2, 1 g/L hexanoic acid, 20 g/L glucose, 28° C., FIG. 1): increased
intracellular lipid content ([2]; Example 2, 1 g/L hexanoic acid, 50.3% without hexanoic acid (Comparative Example 2)): 73.8%
content of oleic acid in the produced lipids ([2]; Example 2, 1 g/L hexanoic acid, FIG. 3): ~61%
relative oleic acid production as compared to Comparative Example 1 (wild-type strain, medium not comprising hexanoic acid) ([2]; Example 2, recombinant strain plus 1 g/L hexanoic acid, FIG. 4): about 3.3 times
oleic acid concentration increased by [3, 4]: 10.5%
oleic acid content increased by [3, 4]: 27.4%
oleic acid concentration [3, 4]: 0.417 g/L
oleic acid concentration increased by [3, 5]: 40.3%
oleic acid content increased by [3, 5]: 40.1%
oleic acid concentration [3, 5]: 0.529 g/L
oleic acid concentration increased by ([3]; Example 5, 1 g/L hexanoic acid): 61.2%
oleic acid content increased by ([3]; Example 5, 1 g/L hexanoic acid): 52.1%
oleic acid concentration ([3]; Example 5, 1 g/L hexanoic acid): 0.608 g/L
consumption of xylose ([3]; hexanoic acid added to medium with 20 g/L glucose and 10 g/L xylose, FIG. 8): increased remarkably

From US20230242948A1, “OLEIC ACID PRODUCED FROM MICROORGANISM AND METHOD FOR PRODUCING OLEIC ACID USING MICROORGANISM” (KOREA INSTITUTE OF SCIENCE AND TECHNOLOGY, priority 2022, published 2023)
